The text below walks through data of article PMC10177516, “Design and Biological Evaluation of Small-Molecule PET-Tracers for Imaging of Programmed Death Ligand 1” (Cancers, 2023).

SMILES strings stand for the structures. Where two headings read alike, the source gives them in different places.

Data set [1] in a line: log D7.4 determination, shake-flask n-octanol/PBS. The format is physicochemical. Conditions: ^64Cu-labeled, n-octanol/PBS pH 7.4, mean ± SD, n=3. As to the method: n-Octanol/water distribution coefficients (log D7.4) were determined using the shake-flask method and performed in triplicate. Twenty µL of the reaction mixture was added to a 1.5 mL Eppendorf Tube containing 580 µL of 1× PBS (pH 7.4) and 600 µL n-octanol. The two-phase system was shaken at room temperature with 1500 rpm for 5 min. After centrifugation, an aliquot of each phase was withdrawn, and the count rates were measured in a γ-counter (ISOMED2160 sodium iodide crystal detector). The average was calculated, corrected for background activity, and the log D7.4 value was calculated according to the formula: logD7.4=logAn−octanol/APBS .

Data set [2] in a line: Proteolytic stability in human serum, radio-HPLC. The format is in vitro ADME. Conditions: ^177Lu-labeled, throughout the study (up to seven days). Here is the method: The corresponding radiotracer was labeled with approx. 50 MBq of ^177Lu in 200 µL HEPES solution (pH 4) as described above. After successful labeling, the reaction mixture was diluted 1:10 with human serum. The solution was incubated at 37 °C with shaking at 500 rpm. After 1 h, 24 h, 48 h, 72 h, and 7 d, a 1 µL aliquot was analyzed by radio-TLC as described above. Evaluation and graphical plotting were performed with OriginPro® 9.0.
For investigation by radio-HPLC, a chloroform–methanol precipitation was carried out at each time point. An aliquot (100 µL) of the serum-containing incubation reaction was mixed with 400 µL of MeOH. Then, 100 µL of chloroform were added and the sample was vortexed well. For phase separation, 300 µL of ultrapure water were added, and the sample was vortexed vigorously and centrifuged for 2 min at 14,000× g. The upper, aqueous layer was carefully removed and collected. To the lower chloroform phase and the interphase containing the precipitated proteins, 400 µL of MeOH was added. The sample was mixed and centrifuged again for 3 min at 14,000× g to pellet the proteins. […] Afterward, the clear supernatant was analyzed by radio-HPLC (system E). The peak areas were normalized by measuring the activity with the gamma counter (HIDEX Deutschland Vertrieb GmbH, Mainz, Germany) at the corresponding time point. Evaluation and graphical plotting were performed with OriginPro® 9.0.

Data set [3] deals with PC3 PD-L1 and PC3 mock tumors. The experiment in a line: Small animal PET/CT in tumor-bearing mice. The following applies: blocking with 100 nmol of the respective unlabeled compound; PET. It counts as in vivo, NMRI-nude mice. Here is the method:
Male athymic NMRI-nude mice (Rj:NMRI-Foxn1nu, Janvier Labs, Le Genest-Saint-Isle, France) between 8 and 22 weeks of age were used. Under general anesthesia, [~10% desflurane (Baxter, Deerfield, IL, USA) in 30 vol% oxygen + air] and warming, animals were subcutaneously injected with 3–5 × 10^6 PC3 PD-L1 and PC3 mock cells [in 50 µL PBS + 50 µL Matrigel (Corning, Glendale, CA, USA)] into the right and left thigh, respectively. Tumor growth was monitored three times a week by caliper measurements and mice with tumor sizes above 7 mm were included in the experiments.
For PET studies, general anesthesia was induced as described above. PET and X-ray computed tomography (CT) were performed in a dedicated small animal nanoScan PET/CT scanner, with 4 animals imaged simultaneously (Mediso, Budapest, Hungary). CT images were employed for attenuation correction and anatomical referencing. Animals received three individual scans corresponding to 0–2 h (dynamic), 4.5 h, and 24 h (static) post injection. […]
Three-dimensional volumes of interest were delineated applying fixed thresholding at 35% of the measured maximum intensity. Standardized uptake values (SUV = [MBq detected activity/mL tissue]/[MBq injected activity/g body weight], […]) were determined in selected volumes of interest, among these PD-L1 and mock tumors and metabolizing organs.

The next data set deals with human serum proteins. The experiment in a line: Serum protein binding, size-exclusion chromatography. The format is in vitro ADME. Conditions: ^177Lu-labeled; human serum 37 °C; 1 h. Here is the method: The corresponding ligand was labeled with approx. 50 MBq of ^177Lu in 200 µL HEPES solution (pH 4) as described above. After successful labeling, 40 µL were mixed with 500 µL of human serum or 500 µL of 1 M HEPES solution (control), respectively. The samples were incubated at 37 °C with 500 rpm and were analyzed by size-exclusion chromatography (Jasco Germany GmbH, Pfungstadt, System F) and native discontinuous polyacrylamide gel electrophoresis (PAGE).
For size-exclusion chromatography, 20 µL aliquots were injected into system F and the obtained peak areas of serum-bound ligands and unbound ligands were used to calculate the percentage of radioligand bound to serum proteins. Evaluation and graphical plotting were performed with OriginPro® 9.0.

The target in data set [4] is T1, PD-L1 (Homo sapiens, UniProt Q9NZQ7).
T1 construct: expressed in transfected cells; host or cells: PC3 cells, lentiviral transduction (PC3-PD-L1)
T1 sequence (Q9NZQ7 19-290): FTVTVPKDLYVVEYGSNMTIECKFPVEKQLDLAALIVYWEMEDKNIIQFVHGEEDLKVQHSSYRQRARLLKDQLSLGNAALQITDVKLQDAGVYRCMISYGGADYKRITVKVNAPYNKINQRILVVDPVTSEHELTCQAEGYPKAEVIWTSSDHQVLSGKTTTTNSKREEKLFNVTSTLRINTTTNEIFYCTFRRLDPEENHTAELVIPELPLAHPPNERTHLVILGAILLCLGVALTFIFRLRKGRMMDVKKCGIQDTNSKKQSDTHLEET
The experiment in a line: Real-time radioligand binding (LigandTracer) on PC3 PD-L1 overexpressing cells. The following applies: for kon: read-out: ka (association rate constant); for koff: read-out: kd (dissociation rate constant). Here is the method: For binding kinetics (association rate constant ka and dissociation rate constant kd) and dissociation constant (KD), a real-time assay system (LigandTracer Yellow, Ridgeview Instruments AB, Uppsala, Sweden) was employed. In this system, the petri dish containing the cells in medium (3 mL) was located on one side, while radioactivity was detected on the opposite side. The dish rotated on an inclined base, which allowed continuously measuring two or more alternating parts of the dish for bound radioligand (cells) against background (no cells). Binding was performed at room temperature (using CO2-independent medium, Gibco #18045088, ThermoFisher Germany) with or without BSA (2.5%). Association was determined through incubation with two concentrations (10 and 40 nM, 90 min each) of our ^64Cu-labeled PD-L1 small molecules, binding to PC3 PD-L1 overexpressing cells. This was followed by replacement with fresh medium and measurement of dissociation for at least 2 h. This approach provided reliable kinetic measurements as previously shown. Data were acquired in decay-corrected counts per second (CPS). Binding data were then evaluated using TraceDrawer (1.9.2, Ridgeview Instruments AB, Uppsala, Sweden). Traces were imported, potential spikes (>100% sudden increases in CPS over previous datapoint) removed, and each trace was normalized to its own baseline (=0%) and highest value (=100%). The single experiment in the presence of 2.5% BSA was processed in the same way and analyzed for the same parameters, however without replicates.

For data set [5], the target named is T1, PD-L1. The experiment in a line: Saturation binding assay (endpoint, with 2.5% BSA) on PD-L1-positive PC3 cells. Here is the method: To determine the dissociation constant (KD) and number of binding sites (Bmax) of new PD-L1 small-molecule ligands, saturation binding was performed in at least 3 independent experiments. PC3 cells stably transduced with human PD-L1, cultured under conditions described above, were brought to room temperature followed by cooling on ice (each 15 min). The medium was removed and replaced with 200 µL assay buffer [PBS + 2.5% (w/v) bovine serum albumin (BSA; #1ETA, Carl Roth, Karlsruhe, Germany)] for total binding (TB) conditions or assay buffer containing 300 µM of 1 (in DMSO, resulting in 0.03% v/v, synthesized according to Supplementary Scheme S1) for assessment of nonspecific binding (NSB).
After 15 min preincubation for TB/NSB, 200 µL of each eight serial 1:1 dilutions (500 to 3.91 nM) of the respective radioligand were added (in triplicate). […] Radioactivity (counts per minute, CPM) of 400 µL of the lysate was measured in a gamma counter (Perkin Elmer Wizard 1480) using the nuclide-specific energy window. Additionally, we determined the binding to polystyrene in 400 µL of lysate and activity of stock solutions (50 µL). […] Protein content of the lysates (24 or 48 wells) was determined by BCA assay and a mean value (µg/mL) used for this particular dataset (plate). From CPM measurements, final values (pmol/mg protein) were calculated using mean protein content and molar activity. […]

The subject of data set [6] is PD-L1. More on the design: method as in earlier work. The following applies: reported values; cited from earlier work.
The mark [7] stands for this setting: medium only (no BSA), n = 2, mean ± S.D.

As a reminder, the logD is lipophilicity at a set pH, counting ionised and neutral species. A higher logD goes with a more lipophilic compound. By IC50 is commonly meant the concentration that gives 50% inhibition.

Turning to `CN(CC(=O)NCC(S(=O)(=O)O)S(=O)(=O)O)Cc1cc(Cl)c(OCc2cccc(-c3cccc(OCc4cn(CCCC5CCN(C(=O)CN6CCN(CC(=O)O)CCN(CC(=O)O)CCN(CC(=O)O)CC6)CC5)nn4)c3)c2Br)cc1OCc1cncc(S(C)(=O)=O)c1` [42a], the logD in data set [1] was -2.73.
`CN(CC(=O)NCC(S(=O)(=O)O)S(=O)(=O)O)Cc1cc(Cl)c(OCc2cccc(-c3cccc(OCc4cn(CCOCCOCCN5CCN(C(=O)CN6CCN(CC(=O)O)CCN(CC(=O)O)CCN(CC(=O)O)CC6)CC5)nn4)c3)c2Br)cc1OCc1cncc(S(C)(=O)=O)c1` [42c] gave an intact radiotracer in data set [2] of over 90%.
Regarding `Cc1c(COc2cc(OCc3cncc(S(C)(=O)=O)c3)c(CN(C)CC(=O)NCC(S(=O)(=O)O)S(=O)(=O)O)cc2Cl)cccc1-c1cccc(OCc2cn(CCCN3CCN(C(=O)CN4CCN(CC(=O)O)CCN(CC(=O)O)CCN(CC(=O)O)CC4)CC3)nn2)c1C` [43b], in data set [3], the blocking effect entry was “moderate blocking effect”.
For the compound `Cc1c(COc2cc(OCc3cncc(S(C)(=O)=O)c3)c(CN(C)CC(=O)NCC(S(=O)(=O)O)S(=O)(=O)O)cc2Cl)cccc1-c1cccc(OCc2cn(CCOCCOCCN3CCN(C(=O)CN4CCN(CC(=O)O)CCN(CC(=O)O)CCN(CC(=O)O)CC4)CC3)nn2)c1C` [43c], the intact radiotracer in data set [2] is over 90%. Further, in data set [1], the logD was -3.5.
With `Cc1c(COc2cc(OCc3cncc(C#N)c3)c(CN(C)CC(=O)NCC(S(=O)(=O)O)S(=O)(=O)O)cc2Cl)cccc1-c1cccc(OCc2cn(CCCN3CCN(C(=O)CN4CCN(CC(=O)O)CCN(CC(=O)O)CCN(CC(=O)O)CC4)CC3)nn2)c1C` [56a], the “bound to human serum proteins (mean ± SD)” value in the data set with human serum proteins is 95.7%. In data set [2], this compound displayed an intact radiotracer of over 90%.
The corresponding values for `Cc1c(COc2cc(OCc3cncc(C#N)c3)c(CN(C)CC(=O)NCC(S(=O)(=O)O)S(=O)(=O)O)cc2Br)cccc1-c1cccc(OCc2cn(CCCN3CCN(C(=O)CN4CCN(CC(=O)O)CCN(CC(=O)O)CCN(CC(=O)O)CC4)CC3)nn2)c1C` [56b] are 94.6% and over 90%.
As to `Cc1c(COc2cc(OCc3cncc(C#N)c3)c(CN(C)CC(=O)NCC(S(=O)(=O)O)S(=O)(=O)O)cc2I)cccc1-c1cccc(OCc2cn(CCCN3CCN(C(=O)CN4CCN(CC(=O)O)CCN(CC(=O)O)CCN(CC(=O)O)CC4)CC3)nn2)c1C` [56c], the “bound to human serum proteins (mean ± SD)” value with human serum proteins is given as 97.6%.
As for `CCCC[C@H]1C(=O)N(C)[C@@H](CCCC)C(=O)N[C@@H](CCCNC(=O)CCC(C(=O)O)N2CCN(CC(=O)O)CCN(CC(=O)O)CCN(CC(=O)O)CC2)C(=O)N[C@H](C(=O)NCC(N)=O)CSCC(=O)N[C@@H](Cc2ccc(O)cc2)C(=O)N(C)[C@@H](C)C(=O)N[C@@H](CC(N)=O)C(=O)N2CCC[C@H]2C(=O)N[C@@H](Cc2c[nH]cn2)C(=O)N[C@@H](CC(C)C)C(=O)N2C[C@H](O)C[C@H]2C(=O)N[C@@H](Cc2c[nH]c3ccccc23)C(=O)N[C@@H](CO)C(=O)N[C@@H](Cc2cn(C)c3ccccc23)C(=O)N1C` (stereo partly drawn) [[^64Cu]Cu-DOTAGA-WL12, metal not drawn], at PD-L1 [4] (medium + 2.5% BSA, n = 1), the kon turned out to be 7460 M⁻¹ s⁻¹ and the koff was 6.74e-06 s⁻¹. On PD-L1 [4] (setting [7]), the kon was 12200 M⁻¹ s⁻¹ and the koff came to 9.77e-06 s⁻¹. The logD in data set [1] is -2.57 ± 0.02. For the same compound, the “Bmax (maximum number of binding sites)” value at PD-L1 [5] (^64Cu complexes, saturation binding with 2.5% BSA, PD-L1-positive PC3 cells) was 56.7 ± 3.87 pmol/mg. The “affinity, times worse than previously reported using SPR” value at PD-L1 [5] (saturation KD versus SPR value of ref 68) is listed as “approximately 15 times”.
For `Cc1c(COc2cc(OCc3cncc(C#N)c3)c(CN(C)C(CO)(CO)CO)cc2Cl)cccc1-c1cccc(OCCCN2CCC(F)(F)C2)c1C` [compound 3], the IC50 in the data set on PD-L1 [6] is 500 pM.
